Results taken from patent publication US11306095B2 (EAST CHINA UNIVERSITY OF SCIENCE AND TECHNOLOGY, priority 2015, dated 2022).
Values after ≈ are worked out from the molar mass of the structure shown.

Tests used:
[1] = test system: H1975 cells (EGFR L858R/T790M); test: Inhibitory activity on cell proliferation, H1975; assay type: cell-based; conditions: Homo sapiens, NCI-H1975; H1975, 72 hours; read-out: Inhibitory activity on proliferation of cells (IC50, μM) H1975
Protocol: (§1) Cell proliferation activity was assessed by MTS assay. Cells were exposed to processing conditions for 72 hours and the number of cells used in each experiment for each cell line was adjusted based on absorbance values (absorbance values at 490 nm, 1.3-2.2). Six concentration gradients (0.1 nM-10 μM) were set for the compounds to be tested, wherein at least 6 sets of parallel controls for each concentration were used.
(§2) H1975, A431 cells were cultured in corresponding media, and cells were passaged at least twice after resuscitation and then used for experiments. Cells at Log phase were trypsinized and resuspended in culture medium. H1975 (1000 cells per well), A431 (2000 cells per well) were seeded in 96-well plates in a volume of 100 μL; and 6 sets of parallel controls and 7 columns were set. The plate was placed in a 37° C. 5% CO2 incubator overnight. Compounds were dissolved in DMSO to a concentration of […], and then the concentration was gradually diluted to 10 μM, 1 μM, 0.1 μM, 0.01 μM, 0.001 μM, 0.0001 μM per liter, respectively. 2 μL of the compound solution was added to 998 μL of medium, and the mixture was thoroughly mixed. 100 μL of the mixture was added to a 96-well plate. […] After culturing for 68 hours, 20 μL of MTT (5 mg/mL) was added. After 4 hours, the supernatant was discarded and 150 μL of DMSO was added. After shaking for 10 minutes, the plate was read with Synergy HT (Bio TeK) (OD490). Data were calculated using GraphPad Prism version 4.0 and IC50 values were obtained using a non-linear regression model of dose response curve.

EGFR-L858R/T790M = target: T1, EGFR-L858R/T790M (Homo sapiens, UniProt P00533, L858R/T790M); test: Kinase activity test (FRET), EGFR T790M/L858R; assay type: biochemical; conditions: EGFR T790M/L858R; read-out: Inhibitory activity of EGFR on kinase (IC50, nM) T790M/L858R
T1 construct: purchased Invitrogen PV4879
Protocol: (§3) EGFR-TK catalyses transfer of one phosphate group of adenosine triphosphate (ATP) to polypeptide substrate, poly(Glu, Tyr)4:1, which is labeled with two fluorescent groups coumarin and fluorescein.
(§4) 2.5 μL of Test Compounds, 5 μL Kinase/Peptide Substrate Mixture, 2.5 μL ATP Solution were added into a 384-well plate, and the 10 μL of reaction system was shaken for 30 s and incubated at room temperature for 1 h. 5 μL of Development Solution was added and the 15 μL of reaction system was shaken for 30 s, and incubated at room temperature for 1 h. […] The inhibitory rates of the compounds at 7 concentration gradients were determined and the IC50 value for each compound was calculated by Origin 8.0 fitting curve.
(§5) 10 concentration gradients from 5.1×10^−11 mol/L to 1.0×10^−6 mol/L were set for all compounds to be tested.
(§6) Compounds were diluted in DMSO for three times from 5.1×10^−9 M to 1×10^−4 M. 4 μL of the compound was dissolved in 96 μL of water to obtain a 4× compound solution. […] The 10 μL kinase reaction consisted of 2.5 μL compound solution, 5 μL kinase/peptide mix, 2.5 μL ATP solution. […] 5 μL of phosphorylated peptide solution, instead of the kinase/peptide mixture, was used as a 100% phosphorylation control. […] The plates were thoroughly mixed and incubated at room temperature for 1.5 hours. 5 μL of Development Solution was added into each well and then incubated for another 1 hour at room temperature, unphosphorylated peptides were cleaved during this period. Finally, 5 μL Stop Reagent was added to quench the reaction. The plates were measured with EnVision Multilabel Reader (Perkin Elmer). The experimental data were calculated using GraphPad Prism version 4.0. Each experiment was repeated more than 3 times.

[2] = test system: A431 cells (EGFR wild type); test: Inhibitory activity on cell proliferation, A431; assay type: cell-based; conditions: Homo sapiens, A-431; A431, 72 hours; read-out: Inhibitory activity on proliferation of cells (IC50, μM) A431
Protocol: as §1, §2

[3] = Determination of solubility in water (PBS 20 mM, pH 6.8); assay type: physicochemical; conditions: PBS buffer, aqueous buffer, thermodynamic from solid; pH 6.8, 20 mM PBS; read-out: Solubility (pH 6.8, g/mL)
Protocol: The suspension was filtered through a 0.22 μm PVDF filter, and then diluted to an appropriate concentration with methanol (v=50%) and PBS (v=50%), and the absorbance was measured by a UV spectrophotometer. About 3 mg of compound was accurately weighed, and methanol was added for preparing a stock solution of 1 mg/mL. The above stock solution was taken and prepared into a solution at concentrations of 0.05, 0.04, 0.03, 0.02 and 0.01 mg/mL, respectively, PBS solution (v=50%) was added and the absorbance value was measured. Concentration c (mg/mL) as horizontal ordinate vs absorbance A as longitudinal coordinate was plotted, and a line was fitted for obtaining a standard curve (correlation coefficient greater than 0.998). The solubility of a compound in water was calculated from the standard curve.

Wild type EGFR = target: T2, Wild type EGFR (Homo sapiens, UniProt P00533); test: Kinase activity test (FRET), wild type EGFR; assay type: biochemical; conditions: wild type EGFR; read-out: Inhibitory activity of EGFR on kinase (IC50, nM) WT
T2 construct: purchased Invitrogen PV3872
Protocol: as §3, §4, §5, §6

T2 sequence (P00533 25-1210): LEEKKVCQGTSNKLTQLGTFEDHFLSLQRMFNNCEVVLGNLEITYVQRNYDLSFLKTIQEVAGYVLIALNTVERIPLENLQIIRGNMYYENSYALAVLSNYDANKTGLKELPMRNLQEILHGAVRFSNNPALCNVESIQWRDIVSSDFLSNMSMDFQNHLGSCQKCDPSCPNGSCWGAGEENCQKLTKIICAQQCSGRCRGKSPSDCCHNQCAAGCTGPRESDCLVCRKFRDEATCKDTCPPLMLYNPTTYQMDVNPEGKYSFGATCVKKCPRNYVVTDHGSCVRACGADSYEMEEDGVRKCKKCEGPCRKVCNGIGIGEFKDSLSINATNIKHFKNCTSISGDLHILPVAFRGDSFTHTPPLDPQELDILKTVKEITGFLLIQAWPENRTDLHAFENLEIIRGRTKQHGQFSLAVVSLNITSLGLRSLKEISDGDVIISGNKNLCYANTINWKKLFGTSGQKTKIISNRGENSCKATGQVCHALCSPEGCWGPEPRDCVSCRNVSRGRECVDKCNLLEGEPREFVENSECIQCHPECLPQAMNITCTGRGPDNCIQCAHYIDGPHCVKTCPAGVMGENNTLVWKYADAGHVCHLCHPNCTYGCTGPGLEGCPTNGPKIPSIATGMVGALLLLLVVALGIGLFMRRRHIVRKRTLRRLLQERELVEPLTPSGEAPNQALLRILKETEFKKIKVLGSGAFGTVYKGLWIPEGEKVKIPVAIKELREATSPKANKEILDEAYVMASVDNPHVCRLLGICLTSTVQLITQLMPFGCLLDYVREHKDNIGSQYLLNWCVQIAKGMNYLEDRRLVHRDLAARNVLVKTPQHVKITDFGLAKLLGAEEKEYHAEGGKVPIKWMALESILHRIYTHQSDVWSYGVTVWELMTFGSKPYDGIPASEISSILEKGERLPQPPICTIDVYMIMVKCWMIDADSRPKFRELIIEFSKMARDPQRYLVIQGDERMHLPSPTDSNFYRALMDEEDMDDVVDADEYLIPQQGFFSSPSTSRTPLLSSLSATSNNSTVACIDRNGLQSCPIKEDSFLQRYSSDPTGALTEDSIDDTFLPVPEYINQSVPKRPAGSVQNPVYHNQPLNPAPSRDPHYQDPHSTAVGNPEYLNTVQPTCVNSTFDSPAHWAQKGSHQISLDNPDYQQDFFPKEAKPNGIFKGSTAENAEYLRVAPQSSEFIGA
T1 sequence (P00533 25-1210 T790M/L858R): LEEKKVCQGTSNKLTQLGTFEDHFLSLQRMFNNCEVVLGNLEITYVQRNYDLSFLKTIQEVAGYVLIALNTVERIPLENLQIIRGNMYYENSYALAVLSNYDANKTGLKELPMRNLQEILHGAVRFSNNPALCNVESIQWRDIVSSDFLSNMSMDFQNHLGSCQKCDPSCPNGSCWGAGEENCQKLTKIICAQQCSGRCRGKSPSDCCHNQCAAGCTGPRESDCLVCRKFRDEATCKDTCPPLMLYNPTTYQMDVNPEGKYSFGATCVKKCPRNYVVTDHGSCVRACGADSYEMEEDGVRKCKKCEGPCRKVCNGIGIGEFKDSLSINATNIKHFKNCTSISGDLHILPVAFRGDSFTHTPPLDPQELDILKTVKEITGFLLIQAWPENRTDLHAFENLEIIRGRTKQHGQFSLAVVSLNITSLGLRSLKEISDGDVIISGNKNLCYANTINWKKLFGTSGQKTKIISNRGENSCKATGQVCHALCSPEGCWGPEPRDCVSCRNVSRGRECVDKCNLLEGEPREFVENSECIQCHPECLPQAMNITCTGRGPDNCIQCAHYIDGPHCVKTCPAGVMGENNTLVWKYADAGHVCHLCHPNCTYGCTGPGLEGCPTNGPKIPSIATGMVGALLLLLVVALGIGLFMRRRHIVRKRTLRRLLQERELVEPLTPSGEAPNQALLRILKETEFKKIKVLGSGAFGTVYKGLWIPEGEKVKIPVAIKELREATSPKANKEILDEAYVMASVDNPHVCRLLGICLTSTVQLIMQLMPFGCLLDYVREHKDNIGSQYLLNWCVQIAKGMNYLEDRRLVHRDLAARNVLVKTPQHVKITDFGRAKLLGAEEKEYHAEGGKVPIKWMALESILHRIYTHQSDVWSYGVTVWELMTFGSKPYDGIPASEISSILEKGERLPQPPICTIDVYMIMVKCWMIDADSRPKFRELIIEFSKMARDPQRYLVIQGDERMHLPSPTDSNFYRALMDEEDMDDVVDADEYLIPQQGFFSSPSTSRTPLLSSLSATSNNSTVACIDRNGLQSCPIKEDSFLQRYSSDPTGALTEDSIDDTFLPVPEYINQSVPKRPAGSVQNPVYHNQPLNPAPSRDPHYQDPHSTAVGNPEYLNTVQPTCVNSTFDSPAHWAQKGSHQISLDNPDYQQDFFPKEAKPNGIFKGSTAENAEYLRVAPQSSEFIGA

Row | IC50 [1] [µM] | IC50 (EGFR-L858R/T790M) [nM] | IC50 [2] [µM] | melting point [°C] | solubility [3] [µg/mL] | IC50 (Wild type EGFR) [nM] | Structure (SMILES)
1 | 0.831 | 896 | > 10 | 215.5 to 215.7 | 223 (≈ 470 µM) | 86.7 | C=CC(=O)N1CC[C@H](n2c(=O)cnc3cnc(Nc4ccc(N5CCN(C)CC5)c(C)c4)nc32)C1 [Compound 34, (S)-8-(1-acryloyl-3-pyrrolidinyl)-2-((3-methyl-4-(4-methyl-1-piperazinyl)phenyl)amino)-7(8H)pteridinone]
2 | 0.225 | 1.8 | 1.37 | > 300 | < 10 | 2.8 | C=CC(=O)Nc1cccc(-n2c(=O)c(-c3cccc(OC)c3)nc3cnc(Nc4ccc(N5CCN(C)CC5)cc4OC)nc32)c1 [Compound 57, N-(3-(2-((2-methoxy-4-(4-methyl-1-piperazinyl)phenyl)amino)-6-(3-methoxyphenyl)-7-oxo-8(7H)pteridinyl)phenyl)acrylamide]
3 | 1.24 | 86.9 | 1.11 | 117.9 to 118.2 | 719 (≈ 1260 µM) | 2.7 | C=CC(=O)N1CC[C@H](n2c(=O)c(C3CCCCC3)nc3cnc(Nc4ccc(N5CCN(C)CC5)cc4OC)nc32)C1 [Compound 50, (S)-8-(1-acryloyl-3-pyrrolidinyl)-6-cyclohexyl-2-((2-methoxy-4-(4-methyl-1-piperazinyl)phenyl)amino)-7(8H)pteridinone]
4 | 1.56 | > 1000 | 1.81 | 208.3 to 209.3 | < 10 | 343 | C=CC(=O)N1CCC[C@H](Cn2c(=O)c(-c3ccccc3)nc3cnc(Nc4ccc(N5CCN(C)CC5)cc4OC)nc32)C1 [Compound 44]
5 | 2.16 | 9 | > 10 | 253.1 to 254 | 63.3 (≈ 101 µM) | 522 | COc1cc(N2CCN(C)CC2)ccc1Nc1ncc2nc(-c3ccccc3)c(=O)n([C@H]3CCN(C(=O)/C=C/CN(C)C)C3)c2n1 [Compound 31]
6 | 1.05 | 73.1 | 1.38 | 256.1 to 256.4 | > 10 | > 10000 | C=CC(=O)N1CC[C@H](n2c(=O)c(-c3ccccc3)nc3cnc(Nc4ccc(N(C)CCN(C)C)c(C)c4)nc32)C1 [Compound 40]
7 | 1.19 | 38.6 | 1.26 | 260 to 260.2 | > 10 | 5350 | C=CC(=O)N1CC[C@H](n2c(=O)c(-c3ccccc3)nc3cnc(Nc4ccc(N(C)CCN(C)C)c(OC)c4)nc32)C1 [Compound 41]
8 | 0.23 | 1.3 | 3.68 | > 300 | 24.5 (≈ 42.2 µM) | 33 | C=CC(=O)Nc1cccc(-n2c(=O)c(C(F)(F)F)nc3cnc(Nc4ccc(N5CCN(C)CC5)c(OC)c4)nc32)c1 [Compound 33, N-(3-(2-((3-methoxy-4-(4-methyl-1-piperazinyl)phenyl)amino)-7-oxo-6-(trifluoromethyl)-8(7H)-pteridinyl)phenyl)acrylamide]
9 | 0.033 | 7.1 | 2.75 | 249 to 249.5 | < 10 | 1.3 | C=CC(=O)Nc1cccc(-n2c(=O)c(C(C)C)nc3cnc(Nc4ccc(N5CCN(C)CC5)c(OC)c4)nc32)c1 [Compound 32, N-(3-(6-isopropyl-2-((3-methoxy-4-(4-methyl-1-piperazinyl)phenyl)amino)-7-oxo-8(7H)pteridinyl)phenyl)acrylamide]
10 | 5.34 | 251 | 2.06 | 235.5 to 235.7 | < 10 | 16.6 | COc1cc(N2CCN(C)CC2)ccc1Nc1ncc2nc(-c3ccccc3)c(=O)n(-c3cccc(N)c3)c2n1 [Compound 51, 8-(3-aminophenyl)-2-((2-methoxy-4-(4-methyl-1-piperazinyl)phenyl)amino)-6-phenyl-7(8H)pteridinone]
11 | 2.16 | 13.3 | 2.39 | 94.2 to 94.7 | 43.2 (≈ 73.6 µM) | > 10000 | C=CC(=O)N1CCC[C@@H](n2c(=O)c(C3CCCCC3)nc3cnc(Nc4ccc(N5CCN(C)CC5)cc4OC)nc32)C1 [Compound 46, (R)-8-(1-acryloyl-3-piperidinyl)-6-cyclohexyl-2-((2-methoxy-4-(4-methyl-1-piperazinyl)phenyl)amino)-7(8H)pteridinone]
12 | 0.003 | 47.5 | 0.328 | 264.7 to 265.5 | < 10 | 528 | C=CC(=O)Nc1cccc(-n2c(=O)c(-c3ccccc3)nc3cnc(Nc4ccc(N5CCN(C)CC5)c(OC)c4)nc32)c1 [Compound 42, N-(3-(2-((3-methoxy-4-(4-methyl-1-piperazinyl)phenyl)amino)-7-oxo-6-phenyl-8(7H)pteridinyl)phenyl)acrylamide]
13 | 1.06 | 3.5 | 4.1 | 296.5 to 297.3 | < 10 | 1.5 | C=CC(=O)Nc1cccc(-n2c(=O)c(-c3ccc(OC)cc3)nc3cnc(Nc4ccc(N5CCN(C)CC5)cc4OC)nc32)c1 [Compound 54, N-(3-(2-((2-methoxy-4-(4-methyl-1-piperazinyl)phenyl)amino)-6-(4-methoxyphenyl)-7-oxo-8(7H)pteridinyl)phenyl)acrylamide]
14 | 2.2 | > 1000 | 9.6 | 159.9 to 160.7 | 737 (≈ 1280 µM) | > 1000 | Cc1cc(Nc2ncc3nc(C(C)C)c(=O)n([C@H]4CCN(C(=O)/C=C/CN(C)C)C4)c3n2)ccc1N1CCN(C)CC1 [Compound 36, (S,E)-8-(1-(4-(dimethylamino)-2-butenoyl)3-pyrrolidinyl)-2-((3-methyl-4-(4-methyl-1-piperazinyl)phenyl)amino)-6-isopropyl-7(8H)pteridinone]
15 | 0.165 | 0.6 | 2.35 | 292.9 to 293.4 | < 10 | 2.8 | C=CC(=O)Nc1cccc(-n2c(=O)c(-c3ccccc3)nc3cnc(Nc4cc(C)c(N5CCN(C)CC5)cc4OC)nc32)c1 [Compound 38, N-(3-(2-((2-methoxy-5-methyl-4-(4-methyl-1-piperazinyl)phenyl)amino)-7-oxo-6-phenyl-8(7H)pteridinonyl)phenyl)acrylamide]
